Test results published in US11911348B2, “Therapeutic agent for cancer” (THERAVALUES CORPORATION, priority 2014, dated 2024).

Test system: MC38 mouse colon cancer tumor
Assay: Tumor size of subcutaneously implanted MC38 mouse colon cancer in mice
Assay type: in vivo
Text: As the test animals, 6-week old […] mice (female, weighed around 20 g, CLEA Japan, Inc.) were purchased, and used after being acclimated to the environment for two to five days. • (2) Transplantation Method
In the right abdomen of the test animals, 5×10^5 mouse colon cancer cell lines (MC38) were subcutaneously implanted by using a 27 G needle. • (3) Administration method
Into the mice (n=[…] to 8) to which the colon cancer cell lines (MC 38) had been inoculated, every day from the 3rd day after the inoculation to the last day of the experiment, 200 μl of a curcumin solution prepared by suspending a commercially available curcumin 10%-containing pharmaceutical preparation (Theracurmin® CR-031P, manufactured by Theravalues Corporation) (Examples 1 to 4) in water or by suspending the synthetic curcumin-HPMC complex prepared as described below (Example 5) in water (prepared so that the curcumin content as 5 mg or 30 mg per 1 kg body weight) was forcibly administered orally to the mice using a feeding needle.
In addition, as so the control groups, a curcumin single administration group (Comparative Examples 1, 4, 6, and 10) in a case where Rat IgG2b (clone: LTF-2 manufactured by Bio X Cell) was intraperitoneally administered in place of the anti-PD-L1 antibody (clone: 10F·9G2 manufactured by Bio X Cell) or the anti-PD-1 antibody (clone: RMP1-14 manufactured by Bio X. Cell); an anti-PD-L1 antibody single administration group (Comparative Examples 2, 5 and 7) in a case where water was administered in place of the curcumin solution, and an anti-PD-L1 antibody was administered; an anti-PD-1 antibody single administration group (Comparative Examples 9 and 11) in a case where water was administered in place of the curcumin solution, and an anti-PD-1 antibody was administered; and a water administration group (Comparative Example 3) in a case where water was administered in place of the curcumin solution, and Rat IgG2b (clone: LTF-2 manufactured by Bio X Cell) was administered in place of the anti-PD-L1 antibody were prepared. • (4) Evaluation of Tumor Size
The tumor size of the test animals was measured by measuring the long diameter and the short diameter of the tumor with a vernier caliper every 2 to 4 days, and calculated by the following equation. Tumor size=the long diameter×the short diameter×the short diameter÷2 (Mathematical Formula 1) • (5) Preparation method of synthetic curcumin-HPMC complex

Question: `COc1cc(/C=C/C(=O)/C=C(O)/C=C/c2ccc(O)c(OC)c2)ccc1O` [curcumin] was tested. Which “size of the MC38 mouse colon cancer tumor compared with the control” value (FIG. 3, curcumin 5 mg/kg/mouse singly administered) did it give?
Answer: same size as that of the control

Question: And the “antiproliferative effect of the colon cancer tumor” value (FIG. 3, curcumin 5 mg/kg/mouse, anti-PD-L1 antibody on 7th, 10th, 13th days)?
Answer: not recognized

Question: What about the “size of the MC38 mouse colon cancer tumor compared with the control” value (FIG. 4, curcumin 30 mg/kg/mouse singly administered) of the same molecule?
Answer: same size as that of the control

Question: And the “antiproliferative effect of the colon cancer tumor” value (FIG. 4, curcumin 30 mg/kg/mouse, anti-PD-L1 antibody)?
Answer: not recognized
